Data on one compound can be found in patent US20250041460A1, “LANTHANIDE-BASED CONTRAST AGENTS HAVING IMPROVED STABILITY AND METHODS FOR THEIR PRODUCTION AND PURIFICATION” (Inventure, LLC, priority 2023, published 2025).

This series in a line: Metastables test: challenge with cation exchange resin (Purolite C150), UV 274 nm peak. It counts as physicochemical. An excerpt: FIGS. 3 and 4 show the relative and absolute stability of Applicant's disclosed TSA′ Gd Product as compared to two commercially available and frequently used MRI contrast agents Dotarem® and Clariscan®. The data shown in FIGS. 3 and 4 were obtained as follows. Exposing the product to a cation retaining resin, any free gadolinium ions in the sample are retained on the resin. Since the free gadolinium ions are continually removed, the equilibrium that would normally slow the decomposition of gadolinium DOTA metastable compounds is shifted toward decomposition. […] Gadolinium DOTA complex treated with xylenol orange has a characteristic peak at 274 nm in the ultraviolet spectrum. The amount of metastable gadolinium DOTA complex in the mixture can be inferred by measuring the decrease in this peak height with an ultraviolet spectrometer.
The test procedure used to obtain the foregoing results was as follows: • 1. Expose the resin to water for 24 hours. • 2. Measure the 274 nm peak height of the sample just prior to exposure to resin. This is the initial time point. • 3. Combine one equivalent of resin with one equivalent of the sample and agitate. • 4. […]
A metastable test is used to quantify ideal twisted square antiprismatic (TSA′) locked structures (TSA′ specification is greater than 99.5%). […]
The UV spectra for the time points were acquired over a range of 250-350 nm. The absorbance for the peak at 274 nm was corrected for changes in baseline by linearly interpolating the baseline from before and after the group of peaks around 274 nm (i.e., approximately from 270 to 280 nm) and subtracting the interpolated baseline value at 274 nm from the absorbance of the 274 nm peak maximum.
For the analysis of a time course experiment, it is useful to plot the corrected absorbances of the 274 nm peak as a percentage of the corrected absorbances of the 274 nm peak at the first time point versus time. […]

Setting [1] is: after resin purification process of Example 7.

For `CNC[C@H](O)[C@@H](O)[C@H](O)[C@H](O)CO.O=C([O-])CN1CCN(CC(=O)[O-])CCN(CC(=O)O)CCN(CC(=O)[O-])CC1.[Gd+3]` [TSA′ Gd Product, gadoterate meglumine], under setting [1], the “ideal TSA' cages” value is on record as 99.98% and the “non ideal (defective) cages” value stood at 200 PPM. For the same compound, the “stability compared to Dotarem and Clariscan (FIGS. 3-5)” value (cation retaining resin, 274 nm peak height, up to 120 minutes) was “more stable”.
